# From patent US12448383B2, “Compounds and methods for treatment of viral infections” (priority 2022, dated 2025)
# Like-named read-outs stand apart in the source and are kept apart here.
# Legend:
# [1] = test system: Respiratory syncytial virus recombinant with luciferase (RSV-Luc5) in HEp-2 cells; assay: microbe, parasite or virus in culture; assay type: cell-based; conditions: human respiratory syncytial virus, HEp-2, 72 h, read-out: RSV Hep2 EC50
# [2] = test system: SARS Coronavirus 2 recombinant with NanoLuc (SARS-CoV2-NLuc) in A549-hACE2 cells; assay: organism not typed; assay type: cell-based
# [3] = test system: Respiratory syncytial virus recombinant with luciferase (RSV-Luc5) in Normal Human Bronchial Epithelial (NHBE) cells; assay: microbe, parasite or virus in culture; assay type: cell-based
# [4] = CC50 MT4 cytotoxicity (Cell-Titer Glo); assay type: cell-based; conditions: human
# How it was run: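 Uninfected MT-4 and HEp-2 cells cultured 4-5 days at 37° C with 3-fold serially diluted compound (15 nM to 100,000 nM). Viability read by Cell-Titer Glo luminescence; untreated and 2 μM puromycin wells set 100% and 0%. CC50 from non-linear regression as concentration reducing viability by 50%.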
# [5] = test system: Caco-2 cells (clone C2BBe1); assay: CACO-2 permeability; assay type: in vitro ADME; design: unit not given here; conditions: for DM Caco2 A to B: apical to basolateral, donor pH 6.5, receiver pH 7.4; for DM Caco2 B to A: basolateral to apical
# How it was run: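 Caco-2 monolayers grown 21 days on collagen-coated transwells and checked for integrity by TEER. Donor buffer was HBSS/HEPES/glucose pH 6.5 with 200 μM BNPP; receiver was pH 7.4 with BSA. Compounds were dosed apically or basolaterally for A-to-B and B-to-A transport, with receiver sampling at 1 and 2 h, LC-MS/MS analysis and percent recovery.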
# [6] = Stability in pH2 buffered solution; assay type: physicochemical; conditions: pH2 phosphate buffer, 40° C., 24 h; Table N2
# Experimental: (§1) Example N: Stability in p112 and p117 Buffered Solutions
# (§2) The aqueous stability of compounds over a time of 24 hours at 40° C. was assessed. Stability was determined in 50 mM phosphate buffered solutions at both pH2 and pH7, with 150 mM NaCl (to achieve isotonicity). 3-5 mg of solid compounds were added to 7 mL scintillation vials. Acetonitrile was added to each vial to produce a 1 mg/mL stock solution. Stock solutions were diluted to 50 μg/mL in either pH2 or pH7 phosphate buffer, to a volume of 1 mL. For each compound and pH condition, 50 μg/mL samples were prepped in duplicate. One sample was placed on the UPLC tray at 40° C. for analysis, and the second sample was placed in a 40° C. oven for storage. Sample preps for each compound were offset by 40 minutes to account for run time on UPLC.
# (§3) Concentration timepoints were measured at 0, 3, 6, 9, and 12 hrs. After 24 hrs, samples in the 40° C. oven were removed and analyzed by UPLC.
# (§4) In FIG. 2, % AN stands for % area normalized. That is, % AN is the area of the compound peak relative to the sum of areas of all the peaks in the UPLC chromatogram. For example, if there were two peaks, compound peak with an area of 9 and another peak with an area of 1, then the % AN of the compound peak would be 90%.
# [7] = Stability in pH7 buffered solution; assay type: physicochemical; conditions: pH7 phosphate buffer, 40° C., Table N2
# Experimental: as §1, §2, §3, §4
# [8] = GI S9 stability - no PMSF; assay type: in vitro ADME; design: GIS9-HUMAN-NoPMSF T1/2: unit: min; conditions: human intestinal S9, PMSF-free; for half-life at 2 µM: pH 7.4, read-out: GIS9-HUMAN-NoPMSF T1/2
# How it was run: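 Compounds were incubated at 2 μM with PMSF-free intestinal S9 (1 mg/mL protein) in 100 mM PBS, pH 7.4, sampling at 6 time points over 120 min. Parent disappearance and formation of the nucleoside metabolite Reference Compound A were quantified by LC-MS (Q-Exactive) using analyte/internal standard peak area ratios.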
# Plasma stability = assay type: in vitro ADME; design: unit not given here; conditions: 37° C., 2 μM substrate
# How it was run: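 Reaction mixture was sampled at 0.05, 0.5, 1, 2, 3 and 4 hr into quench solution containing internal standard, then centrifuged and diluted with water. Remaining analyte was measured by LC-MS on a Q-Exactive using a formic acid/acetonitrile gradient, with 5 ppm mass tolerance.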
# [9] = Thermodynamic solubility in pH7 buffered solution; conditions: 50 mM phosphate buffer pH7, 150 mM NaCl, ambient temperature, 24 hours
# Experimental: Solubility was determined at ambient temperature in a 50 mM phosphate buffered pH7 solution with 150 mM NaCl (to achieve isotonicity). Solids were added to the buffered solution in 1.5-mL Eppendorf tubes, vortexed for 1 minute, then agitated for 24 hours in an Eppendorf ThermoMixer C. […] Supernatants were diluted to a volume of 1 mL with 30:70 v/v acetonitrile:water. All diluted supernatants were analyzed by UPLC using a Waters Acquity UPLC with a PDA UV detector.
SMILES,EC50 [1] [µM],EC50 ([2]; 48 h; read-out: SARS-CoV2 EC50) [µM],"EC50 ([3]; 72 h, read-out: RSV NHBE EC50) [µM]",CC50 [4] [µM],DM Caco2 A to B [5],DM Caco2 B to A [5],pH 2 Stability 24 h % AN [6] [% AN],pH 7 Stability 24 h % AN [7] [% AN],"EC50 ([2]; 48 h, read-out: SARS-CoV2 EC50) [µM]","CC50 ([4]; uninfected MT-4 cells, 4-5 days, read-out: MT4 CC50) [µM]",half-life at 2 µM [8] [min],STA Human Plasma 37 (Plasma stability),Sol pH 7 [9],GIS9-HUMAN-NoPMSF T1/2 [8],EC50 ([2]; A549; read-out: EC50 SARS CoV2 NanoLuc A549 384) [µM],EC50 ([3]; read-out: EC50 RSVFluc-NHBE 384 V2) [µM],logD (physchem)
"CCCC(=O)Nc1ncnn2c([C@]3(C#N)O[C@H](COC(=O)OCC(C)C)[C@@H](O)[C@H]3O)ccc12 [Compound 21, [(2R,3S,4R,5R)-5-[4-(butanoylamino)pyrrolo[2,1-f][1,2,4]triazin-7-yl]-5-cyano-3,4-dihydroxy-tetrahydrofuran-2-yl]methyl isobutyl carbonate]",2.38,12.9,2.25,> 50,1.36,8.33,0,92,–,–,–,–,–,–,–,–,–
"CCC(C)(C)OC(=O)OC[C@H]1O[C@@](C#N)(c2ccc3c(N)ncnn23)[C@H](OC(=O)OC(C)(C)CC)[C@@H]1OC(=O)OC(C)(C)CC [Compound 60, (2R,3R,4R,5R)-2-(4-aminopyrrolo[2,1-f][1,2,4]triazin-7-yl)-2-cyano-5-((((tert-pentyloxy)carbonyl)oxy)methyl)tetrahydrofuran-3,4-diyl di-tert-pentyl bis(carbonate)]",–,–,1.58,–,0.12,0.32,0,0,2.69,32.9,44.9,1584,–,–,–,–,–
"CC(C)OC(=O)Nc1ncnn2c([C@]3(C#N)O[C@H](COC(=O)OC(C)(C)C)[C@@H](O)[C@H]3O)ccc12 [Compound 63, isopropyl (7-((2R,3R,4S,5R)-5-(((tert-butoxycarbonyl)oxy)methyl)-2-cyano-3,4-dihydroxytetrahydrofuran-2-yl)pyrrolo[2,1-f][1,2,4]triazin-4-yl)carbamate]",–,> 50,41.6,> 50,1.18,12.46,3,0,–,–,181,1584,0.82,–,–,–,–
"CC(C)OC(=O)OC[C@H]1O[C@@](C#N)(c2ccc3c(N)ncnn23)[C@@H]2OC(=O)O[C@@H]21 [Compound 66, ((3aR,4R,6R,6aR)-6-(4-aminopyrrolo[2,1-f][1,2,4]triazin-7-yl)-6-cyano-2-oxotetrahydrofuro[3,4-d][1,3]dioxol-4-yl)methyl isopropyl carbonate]",0.847,3.21,0.499,> 50,–,–,2,0,–,–,0.491,24.2,–,–,–,–,–
"CC(C)(OC(=O)OC[C@H]1O[C@@](C#N)(c2ccc3c(N)ncnn23)[C@H](O)[C@@H]1O)C(F)(F)F [Compound 67, ((2R,3S,4R,5R)-5-(4-aminopyrrolo[2,1-f][1,2,4]triazin-7-yl)-5-cyano-3,4-dihydroxytetrahydrofuran-2-yl)methyl (1,1,1-trifluoro-2-methylpropan-2-yl) carbonate]",–,12.8,1.52,> 50,0.99,9.76,95,91,–,–,10.5,1177.1,–,–,–,–,–
"CC(C)(OC(=O)OC[C@H]1O[C@@](C#N)(c2ccc3c(N)ncnn23)[C@H](O)[C@@H]1O)C(F)F [Compound 76, ((2R,3S,4R,5R)-5-(4-aminopyrrolo[2,1-f][1,2,4]triazin-7-yl)-5-cyano-3,4-dihydroxytetrahydrofuran-2-yl)methyl (1,1-difluoro-2-methylpropan-2-yl) carbonate]",–,> 50,3.4,> 50,2.13,12.17,92,91,–,–,38.9,1584,0.37,–,–,–,–
"CCOC(=O)C(C)(C)OC(=O)OC[C@H]1O[C@@](C#N)(c2ccc3c(N)ncnn23)[C@H](O)[C@@H]1O [Compound 77, Ethyl 2-(((((2R,3S,4R,5R)-5-(4-aminopyrrolo[2,1-f][1,2,4]triazin-7-yl)-5-cyano-3,4-dihydroxytetrahydrofuran-2-yl)methoxy)carbonyl)oxy)-2-methyl propanoate]",–,> 50,≥ 50,> 50,0.27,5.58,98,95,–,–,792,383.67,4.64,–,–,–,–
"COCC(C)(C)OC(=O)OC[C@H]1O[C@@](C#N)(c2ccc3c(N)ncnn23)[C@H](O)[C@@H]1O [Compound 96, ((2R,3S,4R,5R)-5-(4-aminopyrrolo[2,1-f][1,2,4]triazin-7-yl)-5-cyano-3,4-dihydroxytetrahydrofuran-2-yl)methyl (1-methoxy-2-methylpropan-2-yl) carbonate]",–,–,> 50,> 50,0.09,4.05,96,95,–,–,–,1584,1.25,789,–,–,–
"CCOC(=O)[C@H](C)OC(=O)OC[C@H]1O[C@@](C#N)(c2ccc3c(N)ncnn23)[C@H](O)[C@@H]1O [Compound 97, ethyl (S)-2-(((((2R,3S,4R,5R)-5-(4-aminopyrrolo[2,1-f][1,2,4]triazin-7-yl)-5-cyano-3,4-dihydroxytetrahydrofuran-2-yl)methoxy)carbonyl)oxy)propanoate]",–,–,6.16,–,0.04,2.15,98,85,–,–,3.65,6.669,6.02,–,–,–,–
"CC(C)OC(=O)[C@H]([C@@H](C)OC(=O)OC[C@H]1O[C@@](C#N)(c2ccc3c(N)ncnn23)[C@H](O)[C@@H]1O)N(C)C [Compound 145, isopropyl (2S,3R)-3-[[(2R,3S,4R,5R)-5-(4-aminopyrrolo[2,1-f][1,2,4]triazin-7-yl)-5-cyano-3,4-dihydroxy-tetrahydrofuran-2-yl]methoxycarbonyloxy]-2-(dimethylamino)butanoate]",–,–,–,> 50,0.2,8.475,93,0,–,–,32.8,299.49,–,–,3.48,3.15,1.85
